Assay results as given in patent US20260085101A1, “NOVEL PLATELET DERIVED GROWTH FACTOR PEPTIDE MIMETIC” (THE UNIVERSITY OF SYDNEY, priority 2022, published 2026).

Legend:
Type in all cases: cell-based
[1] = molecular target: T1, PDGF receptor (Mus musculus, UniProt P05622); assay: Western blot for phosphorylation of ERK in C2C12 cells (PDGF receptor activation); settings: for phosphorylation of ERK (pERK): 10 ng/ml PDGF, 1 μg/ml peptide, vs no treatment and AG1296+PDGF−AB controls
T1 construct: Phosphorylation of ERK following treatment of C2C12 Cells with PDGF and JC5; endogenous in cells; host or cells: C2C12 mouse myoblasts
Procedure: FIG. 5. Phosphorylation of ERK following treatment of C2C12 Cells with PDGF and JC5. Western blots for total (ERK) and phosphorylated ERK (pERK) at 42 and 44 kDa show an increase in phosphorylation following treatment with 10 ng/ml PDGF−BB and 1 μg/ml of JC5. FIG. 6. Phosphorylation of ERK following treatment of C2C12 Cells with PDGF and JC5a. Western blots for total (ERK) and phosphorylated ERK (pERK) at 42 and 44 kDa show an increase in phosphorylation 10 minutes post treatment with 10 ng/ml PDGF−BB and 1 μg/ml of novel mimetic peptide JC5a. JC5a maintained this increased phosphorylation of ERK at 30 minutes post treatment. PDGF receptor activation takes place via autophosphorylation of tyrosine […] residues at key sites throughout the intracellular domain. Autophosphorylation engages different signaling pathways, including ERK (MAPK) which participates in proliferation, cell survival, angiogenesis, and chemotactic activity of cells. Phosphorylation of ERK indicates successful activation of the PDGF receptor.

[2] = test system: C3H10T½ mouse embryonic fibroblasts; assay: EdU proliferation assay (flow cytometry); settings: C3H10T½ cells, 1% FBS; for stimulation of proliferation relative to 1% FBS: 24 hr, 20 ng/ml PDGF, 2 μg/ml peptides; for stimulation of the PDGF ligand/receptor pathway inferred from inhibition of EdU levels by AG1296 cotreatment: cotreatment with 10 μM AG1296
Procedure: FIG. 8. Proliferation of C3H10T½ Cells Following Treatment with PDGF and Novel PDGF Mimetic Peptides. Cultured C3H10T½ mouse embryonic fibroblast cells were treated with 20 ng/ml recombinant PDGF−AB or PDGF−BB protein ligands, and 2 μg/ml of novel PDGF mimetics JC5 or JC5a for 24 hr, in the presence of 1% fetal bovine serum (FBS). Percent proliferating cell was determined after a 2 hr pulse with nucleotide analogue EdU at the end of the incubation period. […] Co-treatment of protein/peptides with 10 μM of PDGF receptor antagonist, AG1296, confirmed that PDGF-BB-stimulated proliferation occurred via the PDGF ligand/receptor pathway. […] Error bars represent ±SD, n=3. Statistical analysis was using One-Way Anova: * p<0.05; ** p<0.01; *** p<0.001; **** p<0.0001. The mitotic effects of PDGF mimetic peptides JC5 and JC5a were tested using cultured C3H10T½ mouse embryonic fibroblasts. Proliferation was assayed after a pulse of nucleotide analogue 5-ethynyl-2′-deoxyuridine (EdU) and fluorescent detection using flow cytometry. Cells were treated with 20 ng/ml PDGF−BB or PDGF−AB, and 2 μg/ml of peptides JC5 or JC5a, in the presence of 1% fetal bovine serum (FBS) and DMEM for 24 hr. 10% FBS was used as a positive control, and co-treatments with specific PDGF receptor antagonist, AG1296, was used to ascertain whether proliferation occurred via the PDGF ligand/receptor pathway. Assays were performed in biological triplicate.

[3] = test system: C2C12 mouse myoblasts; assay: Collagen gel contraction assay with C2C12 cells; settings: for collagen gel contracted to % of its initial surface area: 24-hour incubation, 10 ng/ml PDGF, 1 μg/ml peptides, 10 μM AG1296, mean (±SD); for difference in collagen gel area versus negative control AG1296 co-treated with PDGF−AB (Mean Diff.) / difference in collagen gel area versus no treatment control (Mean Diff.): 24 hours; for difference in collagen gel area versus negative control AG1296 co-treated with PDGF−AB (Mean Diff.): vs negative control (55.25%); for difference in collagen gel area versus no treatment control (Mean Diff.): vs no treatment control (41.27%)
Description: FIG. 3. Collagen Contraction of C2C12 Mouse Fibroblasts Treated with PDGF and peptides JC5 and JC5a. […] Error bars represent ±SD, n=8/4. The function of Compounds Ia (also referred to herein as JC5) and Ib (also referred to herein as JC5a) has been tested in vitro on the continuous cell line, C2C12 mouse myoblasts. In these in vitro assays recombinant PDGF−AB and −BB have been used as positive controls along with a serum starved no treatment control and the PDGF receptor inhibitor AG1296 co-treated with PDGF−AB as a negative control. The in vitro assays were designed to assess the major known functions of PDGF whilst also considering functions that are relevant to its in vivo applications. These functions were chemotaxis, collagen contraction, vascular tube formation and activation of the PDGF receptors via phosphorylation of Akt and Erk. Collagen contraction is an important function during wound healing of many tissues including the heart. This can be simulated in vitro using a collagen gel contraction assay. This was assessed using C2C12 cells treated with the positive controls 10 ng/ml recombinant PDGF-BB and PDGF−AB, negative control 10 μM AG1296 co-treated with 10 ng/ml recombinant PDGF−AB, a serum starved no treatment control and 1 μg/ml of the peptides JC5 and JC5a. C2C12 mouse myoblasts were seeded in a 3D collagen gel crosslinked with NaOH and incubated at 37° C. for 24 hours following treatment with the four controls and peptides JC5 and JC5a.

T1 sequence (P05622 32-1098): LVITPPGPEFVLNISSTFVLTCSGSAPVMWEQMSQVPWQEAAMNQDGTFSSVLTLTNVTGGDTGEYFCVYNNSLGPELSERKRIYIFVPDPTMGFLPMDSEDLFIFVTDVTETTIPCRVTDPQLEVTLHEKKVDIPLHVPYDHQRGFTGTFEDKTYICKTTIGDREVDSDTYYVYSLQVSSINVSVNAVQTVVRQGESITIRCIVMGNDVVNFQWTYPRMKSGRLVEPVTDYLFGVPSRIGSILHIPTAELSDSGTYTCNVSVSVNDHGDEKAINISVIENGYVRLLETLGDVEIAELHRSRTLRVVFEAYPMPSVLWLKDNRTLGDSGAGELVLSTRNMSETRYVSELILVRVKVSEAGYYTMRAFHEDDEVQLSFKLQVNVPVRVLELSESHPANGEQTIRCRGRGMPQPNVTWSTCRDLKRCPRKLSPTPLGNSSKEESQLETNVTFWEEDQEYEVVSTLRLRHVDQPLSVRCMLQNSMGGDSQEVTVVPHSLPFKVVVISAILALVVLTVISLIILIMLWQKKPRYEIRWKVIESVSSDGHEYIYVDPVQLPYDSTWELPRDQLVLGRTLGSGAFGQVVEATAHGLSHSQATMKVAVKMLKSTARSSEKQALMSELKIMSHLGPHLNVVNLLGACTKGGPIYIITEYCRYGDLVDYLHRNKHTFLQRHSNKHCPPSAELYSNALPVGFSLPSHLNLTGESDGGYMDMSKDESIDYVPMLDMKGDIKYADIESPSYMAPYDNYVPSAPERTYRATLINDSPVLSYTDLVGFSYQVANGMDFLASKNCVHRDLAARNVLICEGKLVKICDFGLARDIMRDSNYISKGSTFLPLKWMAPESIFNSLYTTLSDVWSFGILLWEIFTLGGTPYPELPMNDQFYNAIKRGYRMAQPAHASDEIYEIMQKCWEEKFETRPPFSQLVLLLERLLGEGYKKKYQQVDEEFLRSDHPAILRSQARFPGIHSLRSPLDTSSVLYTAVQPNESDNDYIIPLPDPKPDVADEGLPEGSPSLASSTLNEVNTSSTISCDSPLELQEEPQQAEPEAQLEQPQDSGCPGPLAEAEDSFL

Row | phosphorylation of ERK (pERK) at 30 minutes post treatment ([1]; 1 μg/ml JC5a, 30 minutes) | Compound | phosphorylation of ERK (pERK) [1] | stimulation of proliferation relative to 1% FBS [2] | collagen gel contracted to % of its initial surface area [3] [%] | difference in collagen gel area versus negative control AG1296 co-treated with PDGF−AB (Mean Diff.) [3] [%] | stimulation of the PDGF ligand/receptor pathway inferred from inhibition of EdU levels by AG1296 cotreatment [2] | difference in collagen gel area versus no treatment control (Mean Diff.) [3] [%]
1 | preserved phosphorylation of ERK (pERK) | CCCCCCCCCCCCCCCC(=O)NCCCC[C@H](NC(=O)[C@H](CCC(=O)O)NC(=O)[C@H](Cc1ccc(O)cc1)NC(=O)[C@@H](CCC(=O)O)NC(=O)CCOCCOCCOCCNC(=O)CCOCCOCCOCCNC(=O)[C@@H](CCCCN)NC(=O)[C@@H](CCCCN)NC(=O)[C@@H](CCCNC(=N)N)NC(=O)[C@@H](NC(=O)[C@@H](NC(=O)[C@H](CCC(=O)O)NC(=O)[C@@H](NC(=O)[C@H](CCCCN)NC(=O)[C@@H](CCCNC(=N)N)NC(=O)[C@H](NC(=O)[C@H](N)CSSC[C@@H](N)C(=O)N[C@@H](C(=O)N[C@H](CCCNC(=N)N)C(=O)N[C@@H](CCCCN)C(=O)N[C@H](C(=O)N[C@@H](CCC(=O)O)C(=O)N[C@H](C(=O)N[C@H](C(=O)N[C@H](CCCNC(=N)N)C(=O)N[C@H](CCCCN)C(=O)N[C@H](CCCCN)C(=O)NCCOCCOCCOCCC(=O)NCCOCCOCCOCCC(=O)N[C@H](CCC(=O)O)C(=O)N[C@@H](Cc1ccc(O)cc1)C(=O)N[C@@H](CCC(=O)O)C(=O)N[C@@H](CCCCNC(=O)CCCCCCCCCCCCCCC)C(=O)N[C@@H](CCC(=O)O)C(=O)N[C@@H](Cc1ccc(O)cc1)C(=O)N[C@@H](CCC(=O)O)C(N)=O)C(C)C)[C@H](C)CC)[C@@H](C)CC)C(C)C)C(C)C)[C@@H](C)CC)[C@H](C)CC)C(C)C)C(=O)N[C@@H](CCC(=O)O)C(=O)N[C@@H](Cc1ccc(O)cc1)C(=O)N[C@@H](CCC(=O)O)C(N)=O [JC5a, PDGF Loop III dimer USA dimer (CVRKIEIVRKK)2(Peg3)2(EYEK(Palm)EYE)2-C′] | phosphorylation of ERK (pERK) can be seen | did not significantly stimulate proliferation | 33.28 | 21.96 |  | 
2 |  | PDGF Loop III dimer HSA (CVRKIEIVRKK)2(Peg3)2EYEK(Palm)EYE-C′ [JC5] | phosphorylation of ERK (pERK) can be seen | did not significantly stimulate proliferation | 23.01 | 32.23 | weak stimulation of the PDGF ligand/receptor pathway | 18.26
3 |  | PDGF−AB: recombinant human PDGF−AB, AB heterodimer of recombinant PDGF, positive control | pERK is induced by PDGF−BB but not PDGF−AB | did not significantly stimulate proliferation | 22.46 | 32.79 | weak stimulation of the PDGF ligand/receptor pathway | 18.82
